Data as given in patent US8415351B2 (priority 2007, dated 2013).

Experiments:
[1] = biological target: T1, HCV polymerase 1A (Δ21 NS5B, H77) (Hepatitis C virus genotype 1a, UniProt P27958); test: biochemical; conditions: IC50 1a
T1 construct: 20 to 50 nM Δ21 NS5B
Method: (§1) HCV Polymerase Inhibition Assay
The reaction was initiated by the addition of 20 μM CTP, 20 μM ATP, 1 μM ^3H-UTP (10 mCi/umol), 5 nM template RNA and 0.1 U/μl RNase inhibitor (RNasin, Promega), and allowed to proceed for 2 to 4 h at room temperature. Reaction volume was 50 μl. The reaction was terminated by the addition of 1 volume of 4 mM spermine in 10 mM Tris-Cl pH 8.0, 1 mM EDTA. After incubation for at least 15 min at room temperature, the precipitated RNA was captured by filtering through a GF/B filter (Millipore) in a 96 well format. The filter plate was washed three times with 200 μl each of 2 mM spermine, 10 mM Tris-Cl pH 8.0, 1 mM EDTA, and 2 times with ethanol. After air-drying, 30 μl of Microscint 20 scintillation cocktail (Packard) was added to each well, and the retained cpm were determined by scintillation counting. […] Retained cpm were plotted vs. inhibitor concentration and fit to equation 1 using non-linear regression (ref. 1) to obtain the IC50 values: Retained cpm=A[sqrt{(IC50+It−Et)^2+4*IC50*Et}−(IC50+It−Et)]
Ref. Morrison, J. F. and S. R. Stone. […] Approaches to the study and analysis of the inhibition of enzymes by slow- and tight-binding inhibitors. Comments Mol. Cell. Biophys.
The sequence of the template RNA used was: 5′-[…]

[2] = biological target: T2, HCV polymerase 1B (Δ21 NS5B, BK) (Hepatitis C virus genotype 1b, UniProt P26663); test: biochemical
T2 construct: 20 to 50 nM Δ21 NS5B
T2 sequence (P26663 2420-2989, stated change not applied): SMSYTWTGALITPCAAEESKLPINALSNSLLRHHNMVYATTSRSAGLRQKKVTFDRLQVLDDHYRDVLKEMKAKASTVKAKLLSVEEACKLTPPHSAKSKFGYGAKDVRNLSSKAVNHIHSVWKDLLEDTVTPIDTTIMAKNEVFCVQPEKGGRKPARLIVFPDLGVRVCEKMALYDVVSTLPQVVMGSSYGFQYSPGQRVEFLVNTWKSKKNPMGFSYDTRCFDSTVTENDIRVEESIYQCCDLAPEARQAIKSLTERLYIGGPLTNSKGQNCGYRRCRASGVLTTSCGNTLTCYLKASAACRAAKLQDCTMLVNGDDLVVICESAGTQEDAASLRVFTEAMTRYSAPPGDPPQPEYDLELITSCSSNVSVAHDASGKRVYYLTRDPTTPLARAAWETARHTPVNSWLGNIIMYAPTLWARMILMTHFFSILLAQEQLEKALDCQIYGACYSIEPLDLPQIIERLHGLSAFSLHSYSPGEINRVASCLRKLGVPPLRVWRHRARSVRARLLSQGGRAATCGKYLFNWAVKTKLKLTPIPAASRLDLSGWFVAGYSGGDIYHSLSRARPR
Method: as §1
Either two-fold serial dilutions (fractional inhibition assay) or a narrower range of dilutions spanning the IC50 of the inhibitor (tight binding assay) of the inhibitors were incubated with 20 mM Tris-Cl pH 7.4, 2 mM MnCl2, 1 mM dithiothreitol, 1 mM ethylene diamine tetraacetic acid (EDTA), 60 to 125 μM GTP and 20 to 50 nM Δ21 NS5B (HCV Strain 1B (BK, Genbank accession number M58335, or H77, Genbank accession number AF011751)) for 15 min at room temperature. The reaction was initiated by the addition of 20 μM CTP, 20 μM ATP, 1 μM ^3H-UTP (10 mCi/umol), 5 nM template RNA and 0.1 U/μl RNase inhibitor (RNasin, Promega), and allowed to proceed for 2 to 4 h at room temperature. Reaction volume was 50 μl. The reaction was terminated by the addition of 1 volume of 4 mM spermine in 10 mM Tris-Cl pH 8.0, 1 mM EDTA. After incubation for at least 15 min at room temperature, the precipitated RNA was captured by filtering through a GF/B filter (Millipore) in a 96 well format. The filter plate was washed three times with 200 μl each of 2 mM spermine, 10 mM Tris-Cl pH 8.0, 1 mM EDTA, and 2 times with ethanol. After air-drying, 30 μl of Microscint 20 scintillation cocktail (Packard) was added to each well, and the retained cpm were determined by scintillation counting. […] Retained cpm were plotted vs. inhibitor concentration and fit to equation 1 using non-linear regression (ref. 1) to obtain the IC50 values: Retained cpm=A[sqrt{(IC50+It−Et)^2+4*IC50*Et}−(IC50+It−Et)]
Ref. Morrison, J. F. and S. R. Stone. 1985. Approaches to the study and analysis of the inhibition of enzymes by slow- and tight-binding inhibitors. Comments Mol. Cell. Biophys. 2: 347-368.
The sequence of the template RNA used was: 5′-[…] […] […] […] […] […] […] […] […] […] […] […] […] […] […] […] […]-3′ (SEQ ID NO: 1)

T1 sequence (P27958 2421-2990, stated change not applied): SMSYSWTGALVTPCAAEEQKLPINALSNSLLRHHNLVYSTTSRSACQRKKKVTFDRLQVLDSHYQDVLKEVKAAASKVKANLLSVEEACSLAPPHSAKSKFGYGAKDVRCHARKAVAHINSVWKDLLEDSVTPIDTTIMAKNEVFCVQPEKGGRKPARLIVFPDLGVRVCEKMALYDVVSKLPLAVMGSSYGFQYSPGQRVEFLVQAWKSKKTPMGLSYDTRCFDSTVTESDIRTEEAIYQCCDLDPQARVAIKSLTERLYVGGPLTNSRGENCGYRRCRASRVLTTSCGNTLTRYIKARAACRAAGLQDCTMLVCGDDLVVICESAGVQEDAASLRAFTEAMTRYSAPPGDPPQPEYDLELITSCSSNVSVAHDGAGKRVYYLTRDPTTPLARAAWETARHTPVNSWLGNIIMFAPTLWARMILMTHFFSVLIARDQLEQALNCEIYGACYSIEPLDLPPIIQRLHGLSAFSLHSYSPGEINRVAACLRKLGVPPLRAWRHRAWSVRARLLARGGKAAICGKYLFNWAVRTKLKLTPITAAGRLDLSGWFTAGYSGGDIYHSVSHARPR

| Compound | IC50 [1] | IC50 [2] |
| --- | --- | --- |
| CCOC(=O)CC(=O)c1ccc(NC(=O)c2cc(N3CCC(=O)NC3=O)cc(C(C)(C)C)c2OC)cc1 [IA-L3-1.43, ethyl 3-(4-(3-tert-butyl-5-(2,4-dioxotetrahydropyrimidin-1(2H)-yl)-2-methoxybenzamido)phenyl)-3-oxopropanoate] | > 1 µM | > 1 µM |
| COc1c(C(=O)Nc2ccc(NC(C)=O)cc2)cc(N2CCC(=O)NC2=O)cc1C(C)(C)C [IA-L3-1.47, N-(4-acetamidophenyl)-3-tert-butyl-5-(2,4-dioxotetrahydropyrimidin-1(2H)-yl)-2-methoxy-benzamide] | > 1 µM | > 1 µM |
| COc1c(C(=O)Nc2ccc(NC(=O)COC(C)=O)cc2)cc(N2CCC(=O)NC2=O)cc1C(C)(C)C [IA-L3-1.48, 2-(4-(3-tert-butyl-5-(2,4-dioxotetrahydropyrimidin-1(2H)-yl)-2-methoxybenzamido)phenyl-amino)-2-oxoethyl acetate] | > 1 µM | > 1 µM |
| COC(=O)Nc1ccc(NC(=O)c2cc(N3CCC(=O)NC3=O)cc(C(C)(C)C)c2OC)cc1 [IA-L3-1.49, Methyl 4-(3-tert-butyl-5-(2,4-dioxotetrahydropyrimidin-1(2H)-yl)-2-methoxybenzamido) phenylcarbamate] | > 1 µM | > 1 µM |
| COc1c(C(=O)Nc2ccc(NC(=O)OC(C)(C)C)cc2)cc(N2CCC(=O)NC2=O)cc1C(C)(C)C [IA-L3-1.50, Tert-butyl 4-(3-tert-butyl-5-(2,4-dioxotetrahydropyrimidin-1(2H)-yl)-2-methoxybenzamido)-phenylcarbamate] | > 1 µM | > 1 µM |
| CCN(c1ccc(NC(=O)c2cc(N3CCC(=O)NC3=O)cc(C(C)(C)C)c2OC)cc1)S(C)(=O)=O [IA-L3-1.63, 3-tert-butyl-5-(2,4-dioxotetrahydropyrimidin-1(2H)-yl)-N-(4-(N-ethylmethylsulfonamido)phenyl)-2-methoxybenzamide] | > 1 µM | > 1 µM |
| COc1c(C(=O)Nc2ccc(N(COC(=O)C(C)(C)C)S(C)(=O)=O)cc2)cc(N2CCC(=O)NC2=O)cc1C(C)(C)C [IA-L3-1.65, (N-(4-(3-tert-butyl-5-(2,4-dioxotetrahydropyrimidin-1(2H)-yl)-2-methoxybenzamido)phenyl)methylsulfonamido)methyl pivalate] | > 1 µM | > 1 µM |
| COc1c(C(=O)Nc2ccc(N(CC3CC3)S(C)(=O)=O)cc2)cc(N2CCC(=O)NC2=O)cc1C(C)(C)C [IA-L3-1.66, 3-tert-butyl-N-(4-(N-(cyclopropylmethyl)methylsulfonamido)phenyl)-5-(2,4-dioxotetrahydropyrimidin-1(2H)-yl)-2-methoxybenzamide] | > 1 µM | > 1 µM |
| COc1c(C(=O)Nc2ccc(N(C(=O)C(C)C)S(C)(=O)=O)cc2)cc(N2CCC(=O)NC2=O)cc1C(C)(C)C [IA-L3-1.72, 3-tert-butyl-5-(2,4-dioxotetrahydropyrimidin-1(2H)-yl)-2-methoxy-N-(4-(N-(methylsulfonyl)isobutyramido)phenyl)benzamide] | > 1 µM | > 1 µM |
| COC(=O)N(c1ccc(NC(=O)c2cc(N3CCC(=O)NC3=O)cc(C(C)(C)C)c2OC)cc1)S(C)(=O)=O [IA-L3-1.73, Methyl 4-(3-tert-butyl-5-(2,4-dioxotetrahydropyrimidin-1(2H)-yl)-2-methoxybenzamido) phenyl(methylsulfonyl)carbamate] | > 1 µM | > 1 µM |
| CCOC(=O)N(c1ccc(NC(=O)c2cc(N3CCC(=O)NC3=O)cc(C(C)(C)C)c2OC)cc1)S(C)(=O)=O [IA-L3-1.74, Ethyl 4-(3-tert-butyl-5-(2,4-dioxotetrahydropyrimidin-1(2H)-yl)-2-methoxybenzamido)-phenyl(methylsulfonyl)carbamate] | > 1 µM | > 1 µM |
| COc1c(C(=O)Nc2ccc(N(C(=O)OCC(C)C)S(C)(=O)=O)cc2)cc(N2CCC(=O)NC2=O)cc1C(C)(C)C [IA-L3-1.76, Isobutyl 4-(3-tert-butyl-5-(2,4-dioxotetrahydropyrimidin-1(2H)-yl)-2-methoxybenzamido) phenyl(methylsulfonyl)carbamate] | > 1 µM | > 1 µM |
| COCCOC(=O)N(c1ccc(NC(=O)c2cc(N3CCC(=O)NC3=O)cc(C(C)(C)C)c2OC)cc1)S(C)(=O)=O [IA-L3-1.77, 2-methoxyethyl 4-(3-tert-butyl-5-(2,4-dioxotetrahydropyrimidin-1(2H)-yl)-2-methoxybenzamido)phenyl(methylsulfonyl)carbamate] | > 1 µM | > 1 µM |
| COc1c(C(=O)Nc2ccc(S(C)(=O)=O)cc2)cc(N2CCC(=O)NC2=O)cc1C(C)(C)C [IA-L3-1.78, 3-tert-butyl-5-(2,4-dioxotetrahydropyrimidin-1(2H)-yl)-2-methoxy-N-(4-(methylsulfonyl)phenyl)benzamide] | > 1 µM | > 1 µM |
| COc1c(C(=O)Nc2ccccc2S(C)(=O)=O)cc(N2CCC(=O)NC2=O)cc1C(C)(C)C [IA-L3-1.79, 3-tert-butyl-5-(2,4-dioxotetrahydropyrimidin-1(2H)-yl)-2-methoxy-N-(2-(methylsulfonyl)phenyl)benzamide] | > 1 µM | > 1 µM |
| COc1c(C(=O)Nc2ccccc2S(N)(=O)=O)cc(N2CCC(=O)NC2=O)cc1C(C)(C)C [IA-L3-1.80, 3-tert-butyl-5-(2,4-dioxotetrahydropyrimidin-1(2H)-yl)-2-methoxy-N-(2-sulfamoylphenyl)benzamide] | > 1 µM | > 1 µM |
| CCCC(=O)OCN1C(=O)CCN(c2cc(C(=O)Nc3ccc(N(COC(=O)CCC)S(C)(=O)=O)cc3)c(OC)c(C(C)(C)C)c2)C1=O [IA-L3-1.88, (N-(4-(3-tert-butyl-5-(3-(butyryloxymethyl)-2,4-dioxotetrahydropyrimidin-1(2H)-yl)-2-methoxybenzamido)phenyl)methylsulfonamido)methyl butyrate] | > 1 µM | > 1 µM |
| COc1c(C(=O)Nc2ccc(N(S(C)(=O)=O)S(C)(=O)=O)cn2)cc(N2CCC(=O)NC2=O)cc1C(C)(C)C [IA-L3-1.101, 3-tert-butyl-5-(2,4-dioxotetrahydropyrimidin-1(2H)-yl)-2-methoxy-N-(5-(N-(methylsulfonyl)methylsulfonamido)pyridin-2-yl)benzamide] | > 1 µM | > 1 µM |
| C=CCN(c1ccc(NC(=O)c2cc(N3CCC(=O)NC3=O)cc(C(C)(C)C)c2OC)cc1)S(C)(=O)=O [IA-L3-1.108, N-(4-(N-allylmethylsulfonamido)phenyl)-3-tert-butyl-5-(2,4-dioxotetrahydropyrimidin-1(2H)-yl)-2-methoxybenzamide] | > 1 µM | > 1 µM |
| CS(=O)(=O)Nc1ccc(NC(=O)c2cc(N3CCC(=O)NC3=O)ccc2O)cc1 [IA-L3-1.114, 5-(2,4-dioxotetrahydropyrimidin-1(2H)-yl)-2-hydroxy-N-(4-(methylsulfonamido)phenyl)benzamide] | > 1 µM | > 1 µM |
| COc1c(C(=O)Nc2ccc(N(COC(=O)C(C)(C)C)S(C)(=O)=O)cc2)cc(N2CCC(=O)N(COC(=O)C(C)(C)C)C2=O)cc1C(C)(C)C [IA-L3-1.116, (3-(3-tert-butyl-4-methoxy-5-(4-(N-(pivaloyloxymethyl)methylsulfonamido)phenylcarbamoyl)phenyl)-2,6-dioxotetrahydropyrimidin-1(2H)-yl)methyl pivalate] | > 1 µM | > 1 µM |
